Laboratory results published in article PMC5936756, “Ionizing Radiation Induces Morphological Changes and Immunological Modulation of Jurkat Cells” (Frontiers in Immunology, 2018).

What was measured:
[1] = tested on: Jurkat cells; test: Determination of cell diameter of Jurkat cells (EVE automatic cell counter); assay type: cell-based, human
Method: Cell diameters were measured with an EVE automatic cell counter (NanoEnTek, Seoul, South Korea). For cell diameter studies, a suitable protocol for Jurkat cells was established and all measurements were validated by visual inspection and if necessary corrected by hand using a personal computer based software. Viability was estimated by using trypan blue exclusion assays.
Cells were exposed to X-ray irradiation in cell culture flasks using an Isovolt 160 Titan E source with a voltage of 90 kV and 33.7 mA (GE Sensing & Inspection Technologies, Alzenau, Germany). Doses were delivered at a 30 cm source to probe distance with cell culture flasks placed on a 2 mm aluminum sheet. CDK1-inhibitor RO3306 (Axon Medchem, Groningen, Netherlands) was dissolved in DMSO at 14.2 mM and added to the cell culture medium in a final concentration of 3 µM. Cyclosporin A (Sigma-Aldrich) was dissolved in ddH2O and added to the cell culture medium of non-irradiated control cells or directly after irradiation of cells in a concentration of 1 µM. The cell permeable Ca^2+ buffer BAPTA-AM [1,2-Bis(2-aminophenoxy)ethane-N,N,N',N'-tetraacetic acid tetrakis(acetoxymethyl) ester, Thermo Fisher] was added to the cell culture medium 30 min prior to cell irradiation at 50 µM and was removed immediately after irradiation. Phytohemagglutinin (PHA-L) was purchased from Biochrom (Berlin, Germany). Cells were treated for 48 h by adding PHA-L to the cell culture medium at a concentration of 7.2 µg/ml. To activate human T-cells ImmunoCult™ Human CD3/CD28/CD2 T Cell Activator (Stem cell Technologies, Vancouver, BC, Canada) was added to the cell culture medium (25 µL per 1 mL of cell suspension) and maintained at 37°C and 5% CO2 for 48 h. The KCa2.2-specific ion channel blocker Tamapin was purchased from Alomone Labs (Jerusalem, Israel) and dissolved in purified water and diluted in external solution for patch clamp experiments.

[2] = tested on: Jurkat cells; test: Cell cycle analysis by flow cytometry (PI DNA content, cells in G2); assay type: cell-based, human; conditions: non-irradiated Jurkat cells, 3 µM RO3306
Method: (§1) Cells were exposed to X-ray irradiation in cell culture flasks using an Isovolt 160 Titan E source with a voltage of 90 kV and 33.7 mA (GE Sensing & Inspection Technologies, Alzenau, Germany). Doses were delivered at a 30 cm source to probe distance with cell culture flasks placed on a 2 mm aluminum sheet. CDK1-inhibitor RO3306 (Axon Medchem, Groningen, Netherlands) was dissolved in DMSO at 14.2 mM and added to the cell culture medium in a final concentration of 3 µM. Cyclosporin A (Sigma-Aldrich) was dissolved in ddH2O and added to the cell culture medium of non-irradiated control cells or directly after irradiation of cells in a concentration of 1 µM. The cell permeable Ca^2+ buffer BAPTA-AM [1,2-Bis(2-aminophenoxy)ethane-N,N,N',N'-tetraacetic acid tetrakis(acetoxymethyl) ester, Thermo Fisher] was added to the cell culture medium 30 min prior to cell irradiation at 50 µM and was removed immediately after irradiation. […]
Flow cytometric analyses were performed after 48 h following irradiation with propidium iodide (PI) solution (4% PI stock, 0.5 mg/ml PI, 38 mM sodium citrate, pH 7), 5% RNAse A stock (RNAse A 5 mg/ml, Tris–HCl 10 mM, NaCl 15 mM, pH 7) using a BioRad S3 Cell Sorter and the FlowJo 10 software for analysis (FlowJo LLC). The percentage of cells in G2/M phases was determined by single-parameter histograms of DNA content.

[3] = tested on: peripheral blood lymphocytes (PBL); test: Determination of cell diameter of PBL after mitogen stimulation; assay type: cell-based, human; conditions: PHA-L 7.2 µg/ml, 48 h
Method: Jurkat cells (ACC 282) were purchased from the German Collection of Microorganisms and Cell Cultures (DSMZ, Braunschweig, Germany). The human EC line EA.hy926 (Crl-2922) was established by fusion of human umbilical vein ECs and the adenocarcinoma epithelial cell line A549 ([18]) and was purchased from ATCC (LGC Standards, Wesel, Germany). Cells were either grown in RPMI 1640 medium (Jurkat), supplemented with 10% heat inactivated fetal calf serum (FCS; PAA, Cölbe, Germany) and 2 mM L-glutamine or in Dulbecco’s modified Eagle’s medium (Invitrogen, Karlsruhe, Germany), supplemented with 10% FCS 50 U/ml penicillin and 5 µg/ml streptomycin (Sigma-Aldrich, Munich, Germany). PBL were isolated from buffy coats using density gradient centrifugation (Biochrom, Berlin, Germany). After centrifugation (40 min at 1,000 × g, RT) interphase cells were isolated, washed twice with PBS, and pelleted by centrifugation (300 × g, 10 min). For adhesion assays, Jurkat cells and PBL were biotinylated by incubation (15 min on ice) with a biotin-N-hydroxysuccinimid ester (NHS-biotin, 10 mg/ml, Sigma-Aldrich) and maintained in RPMI 1640 Medium with 20% FCS, 1% HEPES, and 1% penicillin/streptomycin prior to assays. […]
Cell diameters were measured with an EVE automatic cell counter (NanoEnTek, Seoul, South Korea). […]

[4] = tested on: KCa2.2 channels; conditions: cited from earlier work
[5] = biological target: T1, KCa2.2 channels (Homo sapiens, UniProt Q9H2S1); test: Whole cell patch clamp recording of background current Ib in Jurkat cells; assay type: cell-based; conditions: Tamapin 10 nM
T1 construct: This small current includes, among others, the voltage independent small conductance K^+ channel KCa2.2; endogenous in cells; host or cells: Jurkat cells (ACC 282, DSMZ)
Method: as §1, with “irradiation. Phytohemagglutinin (PHA-L) was purchased from Biochrom (Berlin, Germany). Cells were treated for 48 h by adding PHA-L to the cell culture medium at a concentration of 7.2 µg/ml.” for “irradiation.”
Membrane currents of cells were recorded in a whole cell configuration ([26]) using an EPC-9 amplifier (HEKA Electronics, Lambrecht, Germany). […] Currents were recorded and data analyzed with an EPC-9 amplifier and Patchmaster Software (all from Heka Electronic).

T1 sequence (Q9H2S1 whole entry): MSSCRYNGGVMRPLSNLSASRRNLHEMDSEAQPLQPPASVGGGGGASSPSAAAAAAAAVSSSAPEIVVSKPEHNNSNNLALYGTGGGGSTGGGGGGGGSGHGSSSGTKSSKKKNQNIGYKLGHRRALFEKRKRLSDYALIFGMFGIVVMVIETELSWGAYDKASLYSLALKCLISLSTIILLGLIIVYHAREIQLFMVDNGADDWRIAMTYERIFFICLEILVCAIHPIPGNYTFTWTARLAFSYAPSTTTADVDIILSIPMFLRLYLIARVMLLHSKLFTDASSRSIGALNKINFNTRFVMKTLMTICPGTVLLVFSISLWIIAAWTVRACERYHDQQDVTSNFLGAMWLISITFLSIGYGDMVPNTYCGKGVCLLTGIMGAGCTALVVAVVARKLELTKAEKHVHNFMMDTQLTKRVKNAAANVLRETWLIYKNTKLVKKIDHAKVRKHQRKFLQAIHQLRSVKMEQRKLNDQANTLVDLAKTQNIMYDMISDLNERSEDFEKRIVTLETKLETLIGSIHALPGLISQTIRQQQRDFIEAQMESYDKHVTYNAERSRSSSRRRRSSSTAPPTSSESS

## CC(=O)OCOC(=O)CN(CC(=O)OCOC(C)=O)c1ccccc1OCCOc1ccccc1N(CC(=O)OCOC(C)=O)CC(=O)OCOC(C)=O [BAPTA-AM, 1,2-Bis(2-aminophenoxy)ethane-N,N,N',N'-tetraacetic acid tetrakis(acetoxymethyl) ester]
[1]; Jurkat cells irradiated with 2 Gy, cyclosporine A 1 µM or BAPTA-AM 50 µM
  effect on radiation-induced increase in cell diameter: decreased the effect of irradiation
[1]; irradiated Jurkat cells, cyclosporine A 1 µM or BAPTA-AM 50 µM
  reduction of the radiation-induced cell diameter increase: 50%

## O=C1NC(=NCc2cccs2)S/C1=C\c1ccc2ncccc2c1 [RO3306]
[2]
  cells arrested in G2 phase: 71%
[1]; non-irradiated Jurkat cells, 3 µM RO3306
  increase in cell diameter: 9.6 ± 3%

## Phytohemagglutinin [PHA-L]
[3]; PBL from healthy donors, fit with two Gaussians
  fraction of cells with increased mean size: 45%
[3]; PBL, mock treated 7.2 µm
  mean size (diameter) of the enlarged cell population: 10.2 µm

## Tamapin: scorpion toxin, KCa2.2-specific ion channel blocker (Alomone Labs) (AFCNLRRCELSCRSLGLLGKCIGEECKCVPY; UniProt P59869 1-31, looked up)
[4]
  IC50: 0.024 nM
[5]; irradiated Jurkat cells (1.25 Gy, 48 h after X-ray)
  inhibition of Ib: 23 ± 10%
[5]; mock-irradiated control Jurkat cells, N = 3
  inhibition of Ib: 3.3 ± 0.7%
